In assay [1] the test system is TYK2 pseudokinase (JH2); IL-23-stimulated HEK-Blue IL-23 cells. Briefly: HEK-Blue IL-23 reporter assay (STAT3-inducible SEAP) for profiling TYK2 pseudokinase (JH2) inhibition. It is filed as cell-based. As to conditions: 10 ng/mL human recombinant IL-23, SEAP readout, read-out: IL23 (TYK2 inhibitory activity, IC50). The method, boiled down: (§1)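 Serial compound dilutions preincubated 60 min with cells. IL-23: 10 ng/mL, 22-24 h. IFNα: 1 ng/mL, 16-18 h. QUANTI-Blue SEAP detection.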
A general note: In a reporter assay the amount or activity of a reporter protein is the signal.

Another assay has as its target T1, TYK2 kinase domain (JH1) (Homo sapiens, UniProt P29597).
T1 construct: recombinant purified His or GST-tagged catalytic domain for each enzyme; made in house
T1 sequence (P29597 897-1176 limits assumed): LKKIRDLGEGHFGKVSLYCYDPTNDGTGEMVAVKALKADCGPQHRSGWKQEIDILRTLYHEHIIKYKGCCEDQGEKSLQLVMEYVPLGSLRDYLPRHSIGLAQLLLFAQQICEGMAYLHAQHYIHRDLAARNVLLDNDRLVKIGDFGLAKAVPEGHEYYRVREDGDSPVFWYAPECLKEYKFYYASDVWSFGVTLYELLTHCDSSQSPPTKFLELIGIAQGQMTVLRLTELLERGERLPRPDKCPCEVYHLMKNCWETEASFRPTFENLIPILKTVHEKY
Kind of assay: HTRF-based selectivity assay, TYK2 catalytic domain. Type of assay: biochemical. As to conditions: 20 μM ATP. On the technique in general: Time-resolved FRET reads energy transfer from a long-lived donor to a nearby acceptor.

For another assay, the target named is T2, JAK3 kinase domain (JH1) (Homo sapiens, UniProt P52333).
T2 construct: recombinant purified His or GST-tagged catalytic domain for each enzyme; purchased Carna biosciences 08-046
Kind of assay: HTRF-based selectivity assay, JAK3 catalytic domain. Type of assay: biochemical. As to conditions: 2.12 μM ATP. As for the experimental part:
Example B-2: HTRF-Based Selectivity Assay
The ability of compounds to inhibit the activity of JAK1, JAK2, JAK3 and TYK2 is measured using a recombinant purified His or GST-tagged catalytic domain for each enzyme (JAK1, JAK2 and TYK2 are generated in-house; JAK3 was purchased from Carna biosciences, Cat #08-046) in an HTRF format biochemical assay. The reactions employs a commercial peptide substrate from Cisbio (Cat #62TK0PEC). The basic assay protocol is as follows: first, 2.5 μL of diluted compounds (4×) in DMSO are dispensed into a 384-well Optiplate. Next, 2.5 μL of enzyme (final concentrations for enzymes are: TYK2—700 ng/mL, JAK1—80.6 ng/mL, JAK2—2.1 ng/mL and JAK3—171.8 ng/mL) is added and incubated at RT for 5-20 min. Finally, 5 μl of mixture of 2×ATP [Final concentration 20 μM for TYK2, 21.43 μM for JAK1, 14.7 μM for JAK2 and 2.12 μM for JAK3]+2× Substrate [Final concentration 217 nM for TYK2, 454.7 nM for JAK1, 200 nM for JAK2 and 257.4 nM for JAK3] is added to 384 well Optiplate. Composition of Kinase assay buffer used in the assay is as follows: HEPES 50 mM, EGTA 1 mM, MgCl2 10 mM, DTT 2 mM, Tween-20 0.01% and water. Then the plates are shaken and then incubated at 26.5° C. for 60 min.

Assay [2] deals with IFNγ-stimulated HEK-Blue IFNγ reporter cells. Kind of assay: HEK-Blue IFNγ reporter assay (STAT1-inducible SEAP) for determining selectivity. Type of assay: cell-based. To be noted: 50 ng/mL human recombinant IFNγ, 24 hours, read-out: IFN-γ SEAP selectivity assay IC50. The procedure, abridged:
(§2)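 Cells were plated for 20-22 h, then pretreated with serially diluted compound for 60 min. They were stimulated for 24 h with 4 ng/mL human recombinant IL-2 or 50 ng/mL human recombinant IFNγ, and SEAP induction was read with QUANTI-Blue.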

The test system of assay [3] is TYK2 pseudokinase (JH2); IFNα-stimulated HEK-Blue IFNα/β cells. Briefly: HEK-Blue IFNα/β reporter assay (STAT1-inducible SEAP) for profiling TYK2 pseudokinase (JH2) inhibition. Type of assay: cell-based. As to conditions: 1 ng/mL human recombinant IFNα, SEAP readout, read-out: IFNα (TYK2 inhibitory activity, IC50). The method, boiled down:
as §1

The target of the next assay is T3, JAK1 kinase domain (JH1) (Homo sapiens, UniProt P23458).
T3 construct: recombinant purified His or GST-tagged catalytic domain for each enzyme; made in house
Briefly: HTRF-based selectivity assay, JAK1 catalytic domain. Type of assay: biochemical. As to conditions: 21.43 μM ATP, read-out: JAK-JHI (IC50). The procedure, abridged:
(§3)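 Recombinant His- or GST-tagged JAK catalytic domains (JAK1 80.6, JAK2 2.1, JAK3 171.8 ng/mL) preincubated with compound 5-20 min at RT, then ATP (JAK1 21.43, JAK2 14.7, JAK3 2.12 μM) plus peptide substrate (454.7, 200, 257.4 nM respectively) added. HEPES buffer with MgCl2, 60 min at 26.5 °C; HTRF read-out.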

In a further assay the target is T4, JAK2 kinase domain (JH1) (Homo sapiens, UniProt O60674).
T4 construct: recombinant purified His or GST-tagged catalytic domain for each enzyme; made in house
Kind of assay: HTRF-based selectivity assay, JAK2 catalytic domain. As to conditions: 14.7 μM ATP. It is filed as biochemical. The method, boiled down: as §3

The test system of assay [4] is IL-2-stimulated HEK-Blue IL-2 reporter cells. Kind of assay: HEK-Blue IL-2 reporter assay (STAT5-inducible SEAP) for determining selectivity. It is filed as cell-based. To be noted: 4 ng/mL human recombinant IL-2, 24 hours. The procedure, abridged: as §2

Eleven compounds from patent publication US12122785B2, “Substituted pyridines, pyridazines, pyrimidines, and 1,2,4-triazines as TYK2 inhibitors” (Sudo Biosciences Limited, priority 2021, dated 2024) can be followed below.

T3 sequence (P23458 875-1153 limits assumed): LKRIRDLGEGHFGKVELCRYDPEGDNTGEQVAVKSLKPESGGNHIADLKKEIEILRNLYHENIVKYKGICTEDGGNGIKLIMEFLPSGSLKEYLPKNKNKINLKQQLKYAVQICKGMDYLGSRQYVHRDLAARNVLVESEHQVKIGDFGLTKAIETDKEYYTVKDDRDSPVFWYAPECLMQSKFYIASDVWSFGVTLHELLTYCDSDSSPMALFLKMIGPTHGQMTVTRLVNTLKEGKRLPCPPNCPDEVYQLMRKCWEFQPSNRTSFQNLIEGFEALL
T2 sequence (P52333 822-1111 limits assumed): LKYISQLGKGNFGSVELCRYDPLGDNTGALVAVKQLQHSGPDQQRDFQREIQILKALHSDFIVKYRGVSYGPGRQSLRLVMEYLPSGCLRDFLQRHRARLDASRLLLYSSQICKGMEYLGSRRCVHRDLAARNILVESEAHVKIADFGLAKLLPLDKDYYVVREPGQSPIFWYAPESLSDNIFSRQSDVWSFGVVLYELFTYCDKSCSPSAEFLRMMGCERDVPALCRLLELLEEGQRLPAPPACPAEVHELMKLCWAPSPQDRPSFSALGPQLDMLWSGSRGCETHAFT
T4 sequence (O60674 849-1124 limits assumed): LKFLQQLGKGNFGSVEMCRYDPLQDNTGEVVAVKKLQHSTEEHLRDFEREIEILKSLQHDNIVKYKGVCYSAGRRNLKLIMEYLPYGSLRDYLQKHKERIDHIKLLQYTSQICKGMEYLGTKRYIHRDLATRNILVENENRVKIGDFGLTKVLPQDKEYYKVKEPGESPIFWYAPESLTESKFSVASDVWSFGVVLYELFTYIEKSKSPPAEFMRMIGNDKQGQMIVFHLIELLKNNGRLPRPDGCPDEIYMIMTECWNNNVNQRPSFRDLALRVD

On to `[2H]C([2H])([2H])NC(=O)c1cnc(NC(=O)C2CC2)cc1Nc1cccc2c1N(C)Cc1cn(C([2H])([2H])[2H])nc1-2` [Compound 19, 6-(cyclopropanecarboxamido)-N-(methyl-d3)-4-((5-methyl-2-(methyl-d3)-4,5-dihydro-2H-pyrazolo[4,3-c]quinolin-6-yl)amino)nicotinamide], for which the IC50 is under 30 nM in assay [1]; over 1000 nM against TYK2 kinase domain (JH1); over 1000 nM against JAK3 kinase domain (JH1); over 1000 nM in assay [2]; under 30 nM in assay [3]; over 1000 nM on JAK1 kinase domain (JH1). Besides, the IC50 (against JAK2 kinase domain (JH1); in assay [4]) was over 1000 nM each time.
In the case of `[2H]C([2H])([2H])NC(=O)c1nnc(NC(=O)C2CC2)cc1Nc1cccc2c1N(C)Cc1cn(C([2H])([2H])[2H])nc1-2` [Compound 20, 6-(cyclopropanecarboxamido)-N-(methyl-d3)-4-((5-methyl-2-(methyl-d3)-4,5-dihydro-2H-pyrazolo[4,3-c]quinolin-6-yl)amino)pyridazine-3-carboxamide], the IC50 is under 30 nM in assay [1]; over 1000 nM at TYK2 kinase domain (JH1); over 1000 nM on JAK3 kinase domain (JH1); 30 to 300 nM in assay [2]; under 30 nM in assay [3]; over 1000 nM on JAK1 kinase domain (JH1). Also, the IC50 was over 1000 nM against JAK2 kinase domain (JH1) and 300 to 1000 nM in assay [4].
Turning to `[2H]C([2H])([2H])NC(=O)c1cnc(NC(=O)C2(O)CC2)cc1Nc1cccc2c1N(C)Cc1cn(C)nc1-2` [Compound 21, 4-((2,5-dimethyl-4,5-dihydro-2H-pyrazolo[4,3-c]quinolin-6-yl)amino)-6-(1-hydroxycyclopropane-1-carboxamido)-N-(methyl-d3)nicotinamide], the concentration for half-maximal inhibition (IC50) is 30 to 300 nM in assay [1]; over 1000 nM at TYK2 kinase domain (JH1); over 1000 nM at JAK3 kinase domain (JH1); over 1000 nM in assay [2]; 30 to 300 nM in assay [3]; over 1000 nM at JAK1 kinase domain (JH1). Moreover, the IC50 (on JAK2 kinase domain (JH1); in assay [4]) was over 1000 nM in each case.
For `[2H]C([2H])([2H])NC(=O)c1cnc(NC(=O)C2CC2)nc1Nc1cccc2c1N(C)Cc1cn(C)nc1-2` [Compound 22, 2-(cyclopropanecarboxamido)-4-((2,5-dimethyl-4,5-dihydro-2H-pyrazolo[4,3-c]quinolin-6-yl)amino)-N-(methyl-d3)pyrimidine-5-carboxamide], the IC50 in assay [1] is under 30 nM; on TYK2 kinase domain (JH1), over 1000 nM; at JAK3 kinase domain (JH1), over 1000 nM; in assay [2], over 1000 nM; in assay [3], under 30 nM; on JAK1 kinase domain (JH1) it was over 1000 nM. Besides, the IC50 (against JAK2 kinase domain (JH1); in assay [4]) was over 1000 nM each time.
For the compound `[2H]C([2H])([2H])NC(=O)c1cnc(NC(=O)C2CC2)cc1Nc1cccc2c1N(C)Cc1c[nH]nc1-2` [Compound 23, 6-(cyclopropanecarboxamido)-N-(methyl-d3)-4-((5-methyl-4,5-dihydro-2H-pyrazolo[4,3-c]quinolin-6-yl)amino)nicotinamide], the IC50 was under 30 nM in assay [1]; over 1000 nM at TYK2 kinase domain (JH1); over 1000 nM at JAK3 kinase domain (JH1); over 1000 nM in assay [2]; under 30 nM in assay [3]; over 1000 nM at JAK1 kinase domain (JH1). The half-maximal inhibitory concentration (IC50) (at JAK2 kinase domain (JH1); in assay [4]) was over 1000 nM throughout.
On to `[2H]C([2H])([2H])NC(=O)c1cnc(NC(=O)C2CC2)cc1Nc1cccc2c1N(C([2H])([2H])[2H])Cc1cn(C)nc1-2` [Compound 26, 6-(cyclopropanecarboxamido)-N-(methyl-d3)-4-((2-methyl-5-(methyl-d3)-4,5-dihydro-2H-pyrazolo[4,3-c]quinolin-6-yl)amino)nicotinamide], for which the IC50 in assay [1] was under 30 nM; on TYK2 kinase domain (JH1) it was over 1000 nM; at JAK3 kinase domain (JH1) it was over 1000 nM; in assay [2], 30 to 300 nM; in assay [3], under 30 nM; at JAK1 kinase domain (JH1), over 1000 nM. Also, the IC50 (against JAK2 kinase domain (JH1); in assay [4]) was over 1000 nM in each case.
Consider `[2H]C([2H])([2H])NC(=O)c1nnc(NC(=O)C2CC2)cc1Nc1cccc2c1N(C)Cc1c[nH]nc1-2` [Compound 27, 6-(cyclopropanecarboxamido)-N-(methyl-d3)-4-((5-methyl-4,5-dihydro-2H-pyrazolo[4,3-c]quinolin-6-yl)amino)pyridazine-3-carboxamide], for which the half-maximal inhibitory concentration (IC50) in assay [1] is under 30 nM; at TYK2 kinase domain (JH1) it was over 1000 nM; against JAK3 kinase domain (JH1), over 1000 nM; in assay [2] it was 30 to 300 nM; in assay [3], under 30 nM; on JAK1 kinase domain (JH1), over 1000 nM. The concentration for half-maximal inhibition (IC50) (on JAK2 kinase domain (JH1); in assay [4]) was over 1000 nM in each case.
With `CNC(=O)c1nnc(Nc2ccc(F)cn2)cc1Nc1cccc2c1OCc1cnn(C)c1-2` [Compound 49, 6-((5-fluoropyridin-2-yl)amino)-N-methyl-4-((1-methyl-1,4-dihydrochromeno[4,3-c]pyrazol-6-yl)amino)pyridazine-3-carboxamide], the IC50 in assay [1] was 30 to 300 nM; at TYK2 kinase domain (JH1) it was over 1000 nM; against JAK3 kinase domain (JH1) it was over 1000 nM; in assay [2], under 30 nM; in assay [3] it was over 1000 nM; at JAK1 kinase domain (JH1), over 1000 nM. Also, the 50% inhibitory concentration (IC50) is over 1000 nM at JAK2 kinase domain (JH1) and 300 to 1000 nM in assay [4].
On to `CNC(=O)c1nnc(NC(=O)C2CC2)cc1Nc1cccc2c1OCc1cnn(C)c1-2` [Compound 50, 6-(cyclopropanecarboxamido)-N-methyl-4-((1-methyl-1,4-dihydrochromeno[4,3-c]pyrazol-6-yl)amino)pyridazine-3-carboxamide], for which the IC50 in assay [1] is 300 to 1000 nM; at TYK2 kinase domain (JH1), over 1000 nM; against JAK3 kinase domain (JH1), over 1000 nM; in assay [2], 300 to 1000 nM; in assay [3] it was 300 to 1000 nM; on JAK1 kinase domain (JH1), over 1000 nM. Also, the concentration for half-maximal inhibition (IC50) on JAK2 kinase domain (JH1) was over 1000 nM; in assay [4], 30 to 300 nM.
In the case of `[2H]C([2H])([2H])NC(=O)c1cnc(NC(=O)C2CC2)cc1Nc1cccc2c1N(C)Cc1cnn(C)c1-2` [Compound 51, 6-(cyclopropanecarboxamido)-4-((1,5-dimethyl-4,5-dihydro-1H-pyrazolo[4,3-c]quinolin-6-yl)amino)-N-(methyl-d3)nicotinamide], the IC50 in assay [1] is under 30 nM; against TYK2 kinase domain (JH1) it was over 1000 nM; against JAK3 kinase domain (JH1), over 1000 nM; in assay [2], over 1000 nM; in assay [3] it was 30 to 300 nM; at JAK1 kinase domain (JH1), over 1000 nM. Moreover, the concentration for half-maximal inhibition (IC50) (against JAK2 kinase domain (JH1); in assay [4]) was over 1000 nM throughout.
`COC(=O)c1cnc(NC(=O)C2CC2)cc1Nc1cccc2c1N(C)Cc1cn(C)nc1-2` [Compound 60, methyl 6-(cyclopropanecarboxamido)-4-((2,5-dimethyl-4,5-dihydro-2H-pyrazolo[4,3-c]quinolin-6-yl)amino)nicotinate]: the IC50 was under 30 nM in assay [1]; over 1000 nM against TYK2 kinase domain (JH1); over 1000 nM against JAK3 kinase domain (JH1); over 1000 nM in assay [2]; under 30 nM in assay [3]; over 1000 nM at JAK1 kinase domain (JH1). The IC50 (against JAK2 kinase domain (JH1); in assay [4]) was over 1000 nM each time.

The term IC50 denotes the point on the concentration scale where inhibition reaches its midpoint.
